Results as given in patent US20060052376A1, “Carboxamides” (Merck Patent GmbH, priority 2002, published 2006).

Tests used:
FXa = FXa (Homo sapiens, UniProt P00742); experiment: Factor Xa inhibition (FXa-IC50); format: biochemical
Source text: The inhibition of factor Xa by the compounds according to the invention and the measurement of the anticoagulant and antithrombotic activity can be determined by conventional in-vitro or in-vivo methods. A suitable method is described, for example, by J. Hauptmann et al. in Thrombosis and Haemostasis 1990, 63, 220-223.
The inhibition of factor Xa can be measured, for example by the method of T. Hara et al. in Thromb. Haemostas. 1994, 71, 314-319.

TF/FVIIa = TF/FVIIa (Homo sapiens, UniProt P08709); experiment: TF/FVIIa inhibition (TF/FVIIa-IC50); format: biochemical
Sequence of TF/FVIIa (P08709 213-466 limits assumed): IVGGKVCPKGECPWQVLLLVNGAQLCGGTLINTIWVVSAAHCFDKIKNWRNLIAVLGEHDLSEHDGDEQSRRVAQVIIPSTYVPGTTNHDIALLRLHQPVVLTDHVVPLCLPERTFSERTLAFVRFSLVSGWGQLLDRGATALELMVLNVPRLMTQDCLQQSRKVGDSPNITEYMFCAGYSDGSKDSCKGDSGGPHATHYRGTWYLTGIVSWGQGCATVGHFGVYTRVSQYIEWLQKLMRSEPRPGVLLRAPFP
Sequence of TF/FVIIa (P08709 61-212 partner limits assumed): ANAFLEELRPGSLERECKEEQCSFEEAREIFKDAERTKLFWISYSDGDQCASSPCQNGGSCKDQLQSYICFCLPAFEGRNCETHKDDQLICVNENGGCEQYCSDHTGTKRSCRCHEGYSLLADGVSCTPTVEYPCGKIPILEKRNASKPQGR
Sequence of TF/FVIIa (P13726 33-295 partner): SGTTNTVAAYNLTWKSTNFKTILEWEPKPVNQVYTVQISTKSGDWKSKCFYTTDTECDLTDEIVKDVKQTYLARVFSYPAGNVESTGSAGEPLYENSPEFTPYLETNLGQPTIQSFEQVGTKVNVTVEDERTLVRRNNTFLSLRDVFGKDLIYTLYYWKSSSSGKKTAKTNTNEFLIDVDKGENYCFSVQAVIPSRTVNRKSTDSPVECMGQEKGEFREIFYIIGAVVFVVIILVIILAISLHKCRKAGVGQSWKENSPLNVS
Source text: Coagulation factor VIIa initiates the extrinsic part of the coagulation cascade after binding to tissue factor and contributes to the activation of factor X to give factor Xa. Inhibition of factor Vila thus prevents the formation of factor Xa and thus subsequent thrombin formation. The inhibition of factor Vila by the compounds according to the invention and the measurement of the anticoagulant and antithrombotic activity can be determined by conventional in-vitro or in-vivo methods. A conventional method for the measurement of the inhibition of factor VIIa is described, for example, by H. F. Ronning et al. in Thrombosis Research 1996, 84, 73-81.

Sequence of FXa (P00742 235-488 limits assumed): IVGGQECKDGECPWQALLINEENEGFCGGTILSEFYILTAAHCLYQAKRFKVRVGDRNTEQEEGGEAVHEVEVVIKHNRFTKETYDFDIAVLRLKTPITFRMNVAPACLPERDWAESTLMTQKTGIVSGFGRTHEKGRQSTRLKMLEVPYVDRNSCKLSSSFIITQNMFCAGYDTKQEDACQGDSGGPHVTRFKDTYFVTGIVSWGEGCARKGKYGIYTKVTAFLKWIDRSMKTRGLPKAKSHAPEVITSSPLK
Sequence of FXa (P00742 41-179 partner limits assumed): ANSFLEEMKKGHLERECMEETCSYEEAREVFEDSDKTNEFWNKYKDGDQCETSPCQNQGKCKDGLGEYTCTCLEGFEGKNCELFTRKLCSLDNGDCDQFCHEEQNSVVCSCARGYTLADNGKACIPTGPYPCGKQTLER

| IC50 (FXa) | IC50 (TF/FVIIa) | SMILES |
| --- | --- | --- |
| 39 nM |  | CC(C)C[C@@H](NC(=O)c1ccc(Cl)s1)C(=O)Nc1ccc(-n2ccncc2=O)cc1 [Compound 2A, (R)-2-[(5-chlorothiophene-2-carbonyl)amino]-N-[4-(2-oxo-2H-pyrazin-1-yl)phenyl]4-methylvaleramide] |
| 260 nM |  | CC(C)C[C@H](NC(=O)c1ccc(Cl)s1)C(=O)Nc1ccc(N2CCCCC2=N)cc1 [Compound 4B, (S)-2-[(5-chlorothiophene-2-carbonyl)amino]-N-[4-(2-iminopiperidin-1-yl)phenyl]-4-methylvaleramide] |
| 7.3 nM | 6.9 nM | Cc1cc(NC(=O)[C@@H](CC(C)C)NC(=O)c2ccc(Cl)s2)ccc1N1CCOCC1=O [Compound 1A, (R)-2-[(5-chlorothiophene-2-carbonyl)amino]-N-[3-methyl-4-(3-oxomorpholin-4-yl)phenyl]-4-methylvaleramide] |
| 25 nM |  | CC(C)C[C@@H](NC(=O)c1ccc(Cl)s1)C(=O)Nc1ccc(N2CCCCC2=N)cc1 [Compound 4A, (R)-2-[(5-chlorothiophene-2-carbonyl)amino]-N-[4-(2-iminopiperidin-1-yl)phenyl]-4-methylvaleramide] |
